Measurements from PubChem BioAssay (NCI).
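Five concentrations, 48 hours, 96-well plates. GI50 marks 50% less growth. TGI denotes the concentration required for complete inhibition of growth.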

How the values were obtained:
Experiment in all cases: NCI anticancer screen, dose series, 48 h
COLO 205 colon = tested on: COLO 205 colon
MALME-3M melanoma = tested on: MALME-3M melanoma
CCRF-CEM leukemia = tested on: CCRF-CEM leukemia
EKVX NSCLC = tested on: EKVX NSCLC
NCI-H522 lung = tested on: NCI-H522 lung
U251 CNS = tested on: U251 CNS
SNB-19 CNS = tested on: SNB-19 CNS
HCT-15 colon = tested on: HCT-15 colon
HOP-92 NSCLC = tested on: HOP-92 NSCLC
UACC-62 melanoma = tested on: UACC-62 melanoma

SMILES | GI50 (COLO 205 colon) [µM] | TGI (COLO 205 colon) [µM] | TGI (MALME-3M melanoma) [µM] | GI50 (CCRF-CEM leukemia) [µM] | TGI (CCRF-CEM leukemia) [µM] | GI50 (EKVX NSCLC) [µM] | TGI (EKVX NSCLC) [µM] | GI50 (NCI-H522 lung) [µM] | TGI (NCI-H522 lung) [µM] | GI50 (U251 CNS) [µM] | TGI (U251 CNS) [µM] | GI50 (SNB-19 CNS) [µM] | TGI (SNB-19 CNS) [µM] | GI50 (HCT-15 colon) [µM] | TGI (HCT-15 colon) [µM] | TGI (HOP-92 NSCLC) [µM] | TGI (UACC-62 melanoma) [µM] | GI50 (MALME-3M melanoma) [µM] | GI50 (HOP-92 NSCLC) [µM] | GI50 (UACC-62 melanoma) [µM]
Cc1nc(N)sc1-c1ccnc(Nc2ccc(N3CCOCC3)cc2)n1 | 0.488 | > 100 | > 65 | 1.16 | > 100 | 4.02 | > 100 | 1.41 | 87.5 | 2.36 | > 100 | > 49.5 | > 100 | 0.991 | > 100 |  |  |  |  | 
NC(N)=NCCN=C(N)N |  | > 100 | > 100 |  | > 100 |  | > 100 |  | > 100 |  | > 100 |  | > 100 |  | > 100 | > 100 | > 100 |  |  | 
O=[N+]([O-])c1ccc(C=C2C(Cl)=C(Cl)C(Cl)=C2Cl)cc1 | 3.2 | > 100 | 9.26 | 2.21 | 6.57 | 3.67 | > 100 |  |  | 1.77 | 3.46 | 9.68 | > 100 | 3.17 | > 100 | 4.58 | 24.4 | 2.59 | 2.05 | 4.24
Cc1ccc2c(n1)C(=O)c1[nH]c3ccccc3c1C2=O | 1.89 | 4.14 | 1.07 | 3.45 | > 100 | 1.22 | 4.17 | 2.48 | 9.05 | 2.93 | > 100 | 2.7 | > 100 |  |  | 29 | 1.88 | 0.208 | 2.92 | 0.557
NC(Cc1cccc([N+](=O)[O-])c1)C(=O)O (stereo unspecified) |  | > 100 | > 100 |  | > 100 |  | > 100 |  | > 100 |  | > 100 |  | > 100 |  | > 100 | > 100 | > 100 |  |  | 
COc1ccc(C2CC(c3cccc(Nc4ccncc4)c3)=NN2c2cc(Cl)cc(Cl)c2)cc1 (stereo unspecified) |  |  |  | 2.81 | > 100 | 1.89 | 4.68 |  |  |  |  |  |  | 1.7 | 3.26 | 2.67 | 3.94 |  | 1.25 | 1.9
CCC[CH2][Ge]([CH2]CCC)([CH2]CCC)[O]C(=O)CC(=O)c1ccccc1 | 1.55 | 13.3 | 13 | 0.266 | 10.6 | 0.955 | 16.2 | 0.261 | 10.4 | 3.27 | 17.6 | 11.7 | 24 | 0.316 | 10.4 | 9.88 | 10.1 | 1.47 | 0.331 | 1.7
